In patent US8088574B2, “Poly(A) polymerase” (Wisconsin Alumni Research Foundation, priority 2007, dated 2012):
“Also recorded” adds a separate entry of the source. Blank lines part the entries; values can stand above or below the molecule they belong to.

Columns and labels:
[1] = tested on: T1, Star-PAP complex-associated kinase activity (CKI); assay: in vitro protein kinase assay of purified FLAG-Star-PAP complex: phosphorylation of Star-PAP by the complex-associated kinase activity; format: biochemical, Human; details: for phosphorylation of Star-PAP by the complex-associated kinase activity: inhibitor 0.1-100 μM, 45 minutes on ice before ATP
T1 construct: other: PI4,5P2 micelles, 12.5-100 μM; phosphorylation of Star-PAP by the complex-associated kinase activity; Flag-Star-PAP and FLAG-PAPα were expressed in HEK 293 cells and purified on anti-FLAG M2 resin

[2] = tested on: HO-1 mRNA; assay: quantitative real-time PCR of HO-1 mRNA in HEK 293 cells; details: HEK 293 cells pretreated with CKI inhibitor (IC261 50 μM, CKI-7 250 μM, 2.5 h)
[3] = molecular target: T2, CKIα (Rattus norvegicus, UniProt P97633); assay: in vitro phosphorylation of heat inactivated FLAG-Star-PAP by purified FLAG-CKIα; format: biochemical; details: 50 μM
T2 construct: made in house; host or cells: HEK 293 cells
T2 sequence (P97633 1-325): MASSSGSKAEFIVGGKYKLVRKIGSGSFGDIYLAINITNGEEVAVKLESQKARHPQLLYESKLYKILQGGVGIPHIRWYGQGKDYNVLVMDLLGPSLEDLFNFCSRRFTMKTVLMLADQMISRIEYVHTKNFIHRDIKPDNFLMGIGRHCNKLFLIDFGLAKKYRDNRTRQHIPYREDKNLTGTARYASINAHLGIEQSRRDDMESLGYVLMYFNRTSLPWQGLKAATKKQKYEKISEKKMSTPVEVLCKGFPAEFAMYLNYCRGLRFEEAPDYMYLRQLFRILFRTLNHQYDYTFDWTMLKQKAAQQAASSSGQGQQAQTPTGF
Procedure: Flag-Star-PAP and FLAG-PAPα were expressed in HEK 293 cells and purified on anti-FLAG M2 resin. Purified PAP complexes were subject to an in vitro protein kinase assay as follows. Protein kinase assays were performed in 1× kinase buffer (50 mM Tris-HCl pH 7.5, 10 mM MgCl2 and 0.5 mM EGTA). Assays were initiated by the addition of 10 μM ATP and 5 μCi γ^32P ATP to the reaction mix. Substrates included 100 μg/ml of the generic protein kinase substrates myelin basic protein (MBP) or casein. Heat inactivation of the endogenous kinase activity in the Star-PAP complex was destroyed by heating for 15 minutes at 65° C. The Star-PAP purified complex contained protein kinase activity toward both MBP and casein while the PAPα complex contained almost no detectable protein kinase activity (FIG. 19).
Casein Kinase Iα (CKIα), is a protein kinase found in nuclear speckles; moreover, CKIα activity is inhibited by PI4,5P2. […] FLAG proteins were expressed and purified as follows. Human Star-PAP and rat CKIα cDNAs were cloned in to the pFLAG-1 mammalian expression vector (Sigma). […]
Before the phosphorylation assay, endogenous kinase activity in the FLAG complex was destroyed by heat inactivation; no detectable phosphorylation activity was detected after heat inactivation. […]

[4] = molecular target: Star-PAP complex-associated kinase activity (CKI); details: printed beside inhibitor name/vendor and in FIG. 23 legend; inhibitors used at 0.1-100 μM on FLAG-Star-PAP complex; cited from earlier work
[5] = molecular target: T3, Star-PAP (Homo sapiens, UniProt Q9H6E5, D66G); assay: in vitro poly(A) polymerase assay with Star-PAP; format: biochemical
T3 construct: full length His-Star-PAP was purified over a Ni^++ or glutathione columns; His; T7 tag; made in house; host or cells: E. coli BL21(DE3)
T3 sequence (Q9H6E5 1-874 D66G): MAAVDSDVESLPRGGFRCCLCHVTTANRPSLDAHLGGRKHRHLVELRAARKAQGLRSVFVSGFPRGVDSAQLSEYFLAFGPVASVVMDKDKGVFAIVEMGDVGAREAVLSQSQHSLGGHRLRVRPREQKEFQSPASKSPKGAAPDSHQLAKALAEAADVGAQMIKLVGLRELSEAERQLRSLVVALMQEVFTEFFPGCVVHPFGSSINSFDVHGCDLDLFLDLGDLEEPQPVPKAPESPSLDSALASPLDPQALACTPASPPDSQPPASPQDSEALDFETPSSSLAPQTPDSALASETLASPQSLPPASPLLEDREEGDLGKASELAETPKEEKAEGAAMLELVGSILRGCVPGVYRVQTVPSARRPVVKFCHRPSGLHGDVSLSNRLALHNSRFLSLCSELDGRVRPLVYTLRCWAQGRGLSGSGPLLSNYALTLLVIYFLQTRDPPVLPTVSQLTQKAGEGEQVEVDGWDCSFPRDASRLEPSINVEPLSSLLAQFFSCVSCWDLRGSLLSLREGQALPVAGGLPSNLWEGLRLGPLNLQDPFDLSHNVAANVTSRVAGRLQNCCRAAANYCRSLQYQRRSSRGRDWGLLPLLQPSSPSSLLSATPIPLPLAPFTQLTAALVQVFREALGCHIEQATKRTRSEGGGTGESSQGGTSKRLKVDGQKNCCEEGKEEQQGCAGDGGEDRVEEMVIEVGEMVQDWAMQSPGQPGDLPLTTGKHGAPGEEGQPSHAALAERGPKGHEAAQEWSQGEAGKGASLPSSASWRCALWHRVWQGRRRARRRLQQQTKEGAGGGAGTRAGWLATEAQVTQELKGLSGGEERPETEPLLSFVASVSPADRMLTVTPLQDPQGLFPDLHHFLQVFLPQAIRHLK
From the text: The poly(A) polymerase activity of PIP-PAPs such as Star-PAP, natural or artificial variants, homologues or fragments thereof may be tested by methods known in the art. (See e.g., Kyriakopoulou et al., (2001) J Biol Chem, 276:33504-11).
(§1) As another example, a specific 45 nt RNA oligonucleotide (UAGGGA)5A15 (SEQ ID NO: 22) was designed to serve as an RNA substrate in the poly(A) polymerase assay.
Because Star-PAP associates with the PI4,5P2 generating enzyme PIPKIα; the effect of exogenous phosphoinositides on the in vitro poly(A) polymerase activity of Star-PAP was evaluated. Star-PAP was incubated in the presence of various phosphoinositides (PI, PI3P, PI4P, PI5P, PI3,4P2, PI3,5P2, PI4,5P2 and PI3,4,5P3) or buffer only as a control. Following a brief incubation period the remaining components of the assay were added and allowed to react. In the absence of any phosphoinositide species, Star-PAP was able to extend an RNA primer to generate a modest poly(A) tail. In the presence of PI4,5P2 the incorporation of ATP into poly(A) tails was enhanced. […] This effect was specific for PI4,5P2 as all other inositol phospholipids assayed had no effect on Star-PAP activity in this assay.

[6] = molecular target: T4, Star-PAP complex (Homo sapiens, UniProt Q9H6E5, D66G); assay: PAP assay with Star-PAP complex purified from stably expressing HEK-293 cells treated with tBHQ; format: cell-based
T4 construct: made in house; host or cells: HEK-293 cells stably expressing FLAG-Star-PAP, treated with tBHQ before purification
T4 sequence (Q9H6E5 1-874 D66G): T3 sequence (Q9H6E5 1-874 D66G)
From the text: Treatment of cells with tBHQ caused a large increase in Star-PAP complex activity for the initiation of polyadenylation. […] PI4,5P2 produced by PIPKIα in the complex may then control the processivity of Star-PAP, resulting in a lengthened poly(A) tail. In this manner Star-PAP may respond to oxidative stress signals, and potential other signals, to efficiently regulate the 3′ end formation and polyadenylation by the Star-PAP complex.

[7] = molecular target: PAPα (Homo sapiens, UniProt P51003); assay: in vitro poly(A) polymerase assay with PAPα; format: biochemical; details: 50 μM inositol phospholipid micelles
[8] = molecular target: yeast canonical poly(A) polymerase (Saccharomyces cerevisiae, UniProt P29468); assay: in vitro poly(A) polymerase assay with yeast canonical poly(A) polymerase control; format: biochemical; details: (UAGGGA)5A15 primer
From the text: as §1

yeast canonical poly(A) polymerase, sequence (P29468 whole entry): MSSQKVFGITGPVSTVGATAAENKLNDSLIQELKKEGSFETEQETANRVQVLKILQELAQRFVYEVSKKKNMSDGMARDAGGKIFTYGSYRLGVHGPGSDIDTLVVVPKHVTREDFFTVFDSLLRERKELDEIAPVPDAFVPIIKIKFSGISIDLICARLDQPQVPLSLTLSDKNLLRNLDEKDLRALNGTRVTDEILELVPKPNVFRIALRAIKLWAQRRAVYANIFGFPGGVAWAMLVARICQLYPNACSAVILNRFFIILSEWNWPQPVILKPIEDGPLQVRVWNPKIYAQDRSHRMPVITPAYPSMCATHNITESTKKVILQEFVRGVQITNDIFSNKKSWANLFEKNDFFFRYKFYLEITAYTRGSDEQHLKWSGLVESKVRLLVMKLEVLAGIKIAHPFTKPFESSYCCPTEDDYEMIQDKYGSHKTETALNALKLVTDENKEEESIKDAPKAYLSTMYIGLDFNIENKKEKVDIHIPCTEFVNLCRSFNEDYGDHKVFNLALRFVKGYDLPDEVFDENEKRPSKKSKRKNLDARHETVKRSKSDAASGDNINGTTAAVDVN
PAPα, sequence (P51003 whole entry): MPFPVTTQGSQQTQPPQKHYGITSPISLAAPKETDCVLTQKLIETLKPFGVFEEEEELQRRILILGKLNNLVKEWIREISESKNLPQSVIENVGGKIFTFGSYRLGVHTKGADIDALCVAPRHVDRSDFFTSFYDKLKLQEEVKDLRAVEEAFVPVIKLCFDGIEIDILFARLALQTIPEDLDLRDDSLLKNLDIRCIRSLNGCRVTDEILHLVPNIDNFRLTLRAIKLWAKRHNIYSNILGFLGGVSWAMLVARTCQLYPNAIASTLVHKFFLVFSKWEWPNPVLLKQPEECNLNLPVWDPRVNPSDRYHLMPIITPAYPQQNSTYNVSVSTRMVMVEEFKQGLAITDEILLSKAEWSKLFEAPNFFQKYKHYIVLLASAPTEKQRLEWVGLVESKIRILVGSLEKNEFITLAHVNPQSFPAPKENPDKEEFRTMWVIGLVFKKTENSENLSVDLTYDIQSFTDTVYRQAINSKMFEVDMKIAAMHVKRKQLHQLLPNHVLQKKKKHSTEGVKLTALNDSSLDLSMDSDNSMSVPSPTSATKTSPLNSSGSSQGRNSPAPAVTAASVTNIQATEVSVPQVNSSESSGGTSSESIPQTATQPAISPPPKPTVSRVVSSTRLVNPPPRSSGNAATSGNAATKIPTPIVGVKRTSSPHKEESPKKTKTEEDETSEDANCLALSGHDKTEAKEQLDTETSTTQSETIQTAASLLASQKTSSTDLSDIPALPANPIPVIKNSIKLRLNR

Molecule: COc1cc(OC)c(C=C2C(O)=Nc3ccccc32)c(OC)c1 [IC261]
phosphorylation of Star-PAP by the complex-associated kinase activity [1]: block the phosphorylation of Star-PAP by the complex-associated kinase activity in a dose dependent fashion
basal levels of HO-1 mRNA [2]: reduce HO-1
phosphorylation of Star-PAP by CKIα [3]: blocked; also recorded: can block CKIα phosphorylation of Star-PAP
IC50 [4]: 11 µM

effect of phosphoinositide on Star-PAP poly(A) polymerase activity (incorporation of ATP into poly(A) tails) ([5]; 50 μM inositol phospholipid micelles): enhanced
concentration at which phosphorylation of FLAG-Star-PAP was inhibited (as low as) ([1]; PI4,5P2 micelles, 12.5-100 μM): 12.5 µM
Molecule: phosphatidylinositol-4,5-bisphosphate [PI4,5P2]
Star-PAP processivity (length of the poly(A) tails) ([6]; Star-PAP isolated from tBHQ-treated cells, time course): stimulated Star-PAP processivity, increasing the length of the poly(A) tails
effect of phosphoinositide on PAPα activity [7]: no phosphoinositides tested, including PI4,5P2 stimulated the activity of PAPα
phosphorylation of Star-PAP by CKIα [3]: blocked; also recorded: can block CKIα phosphorylation of Star-PAP

Molecule: cordycepin triphosphate
Star-PAP poly(A) polymerase activity with chain terminator ([5]; (UAGGGA)5A15 primer): inhibited in a dose dependent fashion
yeast canonical poly(A) polymerase activity with chain terminator [8]: inhibited in a dose dependent fashion

Molecule: NCCNS(=O)(=O)c1ccc(Cl)c2ccncc12 [CKI-7]
phosphorylation of Star-PAP by the complex-associated kinase activity [1]: block the phosphorylation of Star-PAP by the complex-associated kinase activity in a dose dependent fashion
basal levels of HO-1 mRNA [2]: reduce HO-1
IC50 [4]: ~6 µM

Molecule: CC(C)(C)c1cc(O)ccc1O [tBHQ, tert-butylhydroquinone]
increase in enzymatic activity of Star-PAP complex over Star-PAP from control cells ([6]; cells treated with 100 μM tBHQ): more than 15 fold

B1: Star-PAP: novel PIP-regulated poly(A) polymerase, SEQ ID NO: 2 (protein, listed as Homo sapiens)
chain: T3 sequence (Q9H6E5 1-874 D66G)
specific poly(A) polymerase activity relative to canonical PAPα ([5]; side-by-side with PAPα): 1.3 fold
